Assay results reported in PubChem BioAssay (NCI).
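Five concentrations, 48 hours, 96-well plates. GI50 = concentration required for 50% inhibition of growth. Definition used: TGI = concentration required for complete inhibition of growth.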

Experiments:
Test in all cases: NCI-60 cell line screen, 48 h
786-0 renal = test system: 786-0 renal
A498 renal = test system: A498 renal
A549 NSCLC = test system: A549 NSCLC
ACHN renal = test system: ACHN renal
BT-549 breast = test system: BT-549 breast
CAKI-1 renal = test system: CAKI-1 renal
CCRF-CEM leukemia = test system: CCRF-CEM leukemia
COLO 205 colon = test system: COLO 205 colon
DU-145 prostate = test system: DU-145 prostate
EKVX NSCLC = test system: EKVX NSCLC
HCC-2998 colon = test system: HCC-2998 colon
HCT-116 colon = test system: HCT-116 colon
HCT-15 colon = test system: HCT-15 colon
HL-60(TB) leukemia = test system: HL-60(TB) leukemia
HOP-62 NSCLC = test system: HOP-62 NSCLC
HOP-92 NSCLC = test system: HOP-92 NSCLC
HT29 colon = test system: HT29 colon
IGROV1 ovarian = test system: IGROV1 ovarian
K-562 leukemia = test system: K-562 leukemia
KM12 colon = test system: KM12 colon
M14 melanoma = test system: M14 melanoma
MALME-3M melanoma = test system: MALME-3M melanoma
MCF7 breast = test system: MCF7 breast
MDA-MB-435 = test system: MDA-MB-435
MDA-MB-468 breast = test system: MDA-MB-468 breast
MOLT-4 leukemia = test system: MOLT-4 leukemia
NCI-H226 lung = test system: NCI-H226 lung
NCI-H23 lung = test system: NCI-H23 lung
NCI-H460 lung = test system: NCI-H460 lung
NCI-H522 lung = test system: NCI-H522 lung
NCI/ADR-RES ovarian = test system: NCI/ADR-RES ovarian
OVCAR-3 ovarian = test system: OVCAR-3 ovarian
OVCAR-4 ovarian = test system: OVCAR-4 ovarian
OVCAR-5 ovarian = test system: OVCAR-5 ovarian
OVCAR-8 ovarian = test system: OVCAR-8 ovarian
PC-3 prostate = test system: PC-3 prostate
RPMI-8226 leukemia = test system: RPMI-8226 leukemia
RXF 393 renal = test system: RXF 393 renal
SF-268 CNS = test system: SF-268 CNS
SF-295 CNS = test system: SF-295 CNS
SF-539 CNS = test system: SF-539 CNS
SK-MEL-2 melanoma = test system: SK-MEL-2 melanoma
SK-MEL-28 melanoma = test system: SK-MEL-28 melanoma
SK-MEL-5 melanoma = test system: SK-MEL-5 melanoma
SK-OV-3 ovarian = test system: SK-OV-3 ovarian
SN12C renal = test system: SN12C renal
SNB-19 CNS = test system: SNB-19 CNS
SNB-75 CNS = test system: SNB-75 CNS
SR leukemia = test system: SR leukemia
T-47D breast = test system: T-47D breast
TK-10 renal = test system: TK-10 renal
U251 CNS = test system: U251 CNS
UACC-257 melanoma = test system: UACC-257 melanoma
UACC-62 melanoma = test system: UACC-62 melanoma
UO-31 renal = test system: UO-31 renal

COc1ccc(-c2ccnc(SCc3cc4cc(OC)ccc4[nH]c3=O)n2)cc1
GI50 (786-0 renal): 26 µM
TGI (786-0 renal): > 100 µM
GI50 (A498 renal): > 100 µM
TGI (A498 renal): > 100 µM
GI50 (A549 NSCLC): 10.1 µM
TGI (A549 NSCLC): > 100 µM
GI50 (ACHN renal): 20.6 µM
TGI (ACHN renal): > 100 µM
GI50 (BT-549 breast): 3.4 µM
TGI (BT-549 breast): > 100 µM
GI50 (CAKI-1 renal): 6.11 µM
TGI (CAKI-1 renal): > 100 µM
GI50 (CCRF-CEM leukemia): 6.66 µM
TGI (CCRF-CEM leukemia): > 100 µM
GI50 (COLO 205 colon): 17.3 µM
TGI (COLO 205 colon): > 100 µM
GI50 (DU-145 prostate): 34.9 µM
TGI (DU-145 prostate): > 100 µM
GI50 (EKVX NSCLC): 4.16 µM
TGI (EKVX NSCLC): > 100 µM
GI50 (HCC-2998 colon): 31.4 µM
TGI (HCC-2998 colon): > 100 µM
GI50 (HCT-116 colon): 3.64 µM
TGI (HCT-116 colon): > 100 µM
GI50 (HCT-15 colon): 4.33 µM
TGI (HCT-15 colon): > 100 µM
GI50 (HL-60(TB) leukemia): 2.34 µM
TGI (HL-60(TB) leukemia): > 100 µM
GI50 (HOP-62 NSCLC): 10.9 µM
TGI (HOP-62 NSCLC): 97.9 µM
GI50 (HOP-92 NSCLC): 7.95 µM
TGI (HOP-92 NSCLC): > 100 µM
GI50 (HT29 colon): 5.38 µM
TGI (HT29 colon): > 100 µM
GI50 (IGROV1 ovarian): 5.66 µM
TGI (IGROV1 ovarian): > 100 µM
GI50 (K-562 leukemia): 2.55 µM
TGI (K-562 leukemia): > 100 µM
GI50 (KM12 colon): 9.43 µM
TGI (KM12 colon): > 100 µM
GI50 (M14 melanoma): 7.31 µM
TGI (M14 melanoma): > 100 µM
GI50 (MALME-3M melanoma): 17 µM
TGI (MALME-3M melanoma): > 100 µM
GI50 (MCF7 breast): 4.65 µM
TGI (MCF7 breast): > 100 µM
GI50 (MDA-MB-435): 3.17 µM
TGI (MDA-MB-435): > 100 µM
GI50 (MDA-MB-468 breast): 2.09 µM
TGI (MDA-MB-468 breast): 6.16 µM
GI50 (MOLT-4 leukemia): 3.26 µM
TGI (MOLT-4 leukemia): > 100 µM
GI50 (NCI-H226 lung): 8.14 µM
TGI (NCI-H226 lung): > 100 µM
GI50 (NCI-H23 lung): 19 µM
TGI (NCI-H23 lung): > 100 µM
GI50 (NCI-H460 lung): 7.41 µM
TGI (NCI-H460 lung): > 100 µM
GI50 (NCI-H522 lung): 7.82 µM
TGI (NCI-H522 lung): > 100 µM
GI50 (NCI/ADR-RES ovarian): 4.06 µM
TGI (NCI/ADR-RES ovarian): > 100 µM
GI50 (OVCAR-3 ovarian): 17.9 µM
TGI (OVCAR-3 ovarian): > 100 µM
GI50 (OVCAR-4 ovarian): 17.6 µM
TGI (OVCAR-4 ovarian): > 100 µM
GI50 (OVCAR-5 ovarian): 23.6 µM
TGI (OVCAR-5 ovarian): > 100 µM
GI50 (OVCAR-8 ovarian): 22.8 µM
TGI (OVCAR-8 ovarian): > 100 µM
GI50 (PC-3 prostate): 6.96 µM
TGI (PC-3 prostate): > 100 µM
GI50 (RPMI-8226 leukemia): 5.05 µM
TGI (RPMI-8226 leukemia): > 100 µM
GI50 (RXF 393 renal): 4.42 µM
TGI (RXF 393 renal): > 100 µM
GI50 (SF-268 CNS): 17.7 µM
TGI (SF-268 CNS): > 100 µM
GI50 (SF-295 CNS): 7.09 µM
TGI (SF-295 CNS): > 100 µM
GI50 (SF-539 CNS): 6.67 µM
TGI (SF-539 CNS): > 100 µM
GI50 (SK-MEL-2 melanoma): 6.27 µM
TGI (SK-MEL-2 melanoma): > 100 µM
GI50 (SK-MEL-28 melanoma): 14.1 µM
TGI (SK-MEL-28 melanoma): > 100 µM
GI50 (SK-MEL-5 melanoma): 4.95 µM
TGI (SK-MEL-5 melanoma): 38 µM
GI50 (SK-OV-3 ovarian): 56.3 µM
TGI (SK-OV-3 ovarian): > 100 µM
GI50 (SN12C renal): 7.41 µM
TGI (SN12C renal): > 100 µM
GI50 (SNB-19 CNS): 35.2 µM
TGI (SNB-19 CNS): > 100 µM
GI50 (SNB-75 CNS): 2.46 µM
TGI (SNB-75 CNS): 71.4 µM
GI50 (SR leukemia): 2.95 µM
TGI (SR leukemia): > 100 µM
GI50 (T-47D breast): 4.97 µM
TGI (T-47D breast): > 100 µM
GI50 (TK-10 renal): 26.1 µM
TGI (TK-10 renal): > 100 µM
GI50 (U251 CNS): 12.4 µM
TGI (U251 CNS): > 100 µM
GI50 (UACC-257 melanoma): 74.5 µM
TGI (UACC-257 melanoma): > 100 µM
GI50 (UACC-62 melanoma): 4.62 µM
TGI (UACC-62 melanoma): > 100 µM
GI50 (UO-31 renal): 8.94 µM
TGI (UO-31 renal): > 100 µM
